For orientation: IC50 means the concentration that gives 50% inhibition.

From patent US10227331B2 (priority 2015, dated 2019) come the findings set out here.

SMILES strings stand for the structures.

One data set deals with IMP-1 (Serratia marcescens, UniProt P52699). Kind of data set: biochemical. The format is biochemical. The conditions noted are these: CCF2-FA substrate, 2 hours at 25° C; read-out: IMP-1 IC50. Put shortly:
(§1)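 Fluorescence assay of metallo-β-lactamase activity using CCF2-FA, a cephalosporin-linked 7-hydroxycoumarin–fluorescein substrate. Inhibitor, enzyme and substrate were incubated together for 2 hours at 25° C. IC50 came from a 4-parameter fit of inhibition versus inhibitor concentration.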

In a further data set the target is NDM-1 (Klebsiella pneumoniae, UniProt C7C422). The data set can be described thus: biochemical. Format: biochemical. The conditions noted are these: CCF2-FA substrate, 2 hours at 25° C; read-out: NDM-1 IC50. Put shortly:
as §1

A further data set has as its target VIM-1 (Pseudomonas aeruginosa (strain ATCC 15692 / DSM 22644 / CIP 104116 / JCM 14847 / LMG 12228 / 1C / PRS 101 / PAO1), UniProt A0A0F7KYQ8). The data set can be described thus: biochemical. The following applies: CCF2-FA substrate, 2 hours at 25° C. Put shortly: as §1
For data set [1], the system named is Escherichia coli expressing NDM-1 (CLB30005, CLB30016). Format: cell-based. The following applies: with imipenem 1 μg/ml, 95% inhibition of bacterial growth. The procedure, abridged:
(§2)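 Clinical strains grown overnight on blood agar, then diluted 1:100 in 1.1× CAMHB and exposed to test compound with imipenem at 1 μg/ml. Incubation was 22–24 h at 35° C; growth was read by absorbance to find the compound concentration restoring imipenem susceptibility.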

In data set [2] the test system is Klebsiella pneumoniae expressing VIM-1 (IHMA599644). The format is cell-based. The following applies: with imipenem 1 μg/ml, 95% inhibition of bacterial growth. The procedure, abridged: as §2
Data set [3] has as its system Serratia marcescens expressing IMP-1 (CL5741). Format: cell-based. The following applies: with imipenem 1 μg/ml, 95% inhibition of bacterial growth. The procedure, abridged:
as §2

Data set [4] concerns P. aeruginosa expressing IMP-1, efflux+ (MB9798). The format is cell-based, Pseudomonas aeruginosa. The conditions noted are these: for P. aeruginosa expressing IMP-1, efflux+ (MB9798) MITC95: imipenem at 2 μg/mL, in the presence of a class A, C, D serine β-lactamase inhibitor closely related to relebactam; for Efflux ratio: ratio MITC95 PA_9798/MITC95 PA_9799. The source says:
(§3) The strain background is Pseudomonas aeruginosa PAO1.

Data set [5] has as its system P. aeruginosa expressing IMP-1, efflux− (MB9799). Kind of data set: Efflux: concentration of MBL inhibitor which restores susceptibility to imipenem. Format: cell-based, Pseudomonas aeruginosa. The following applies: imipenem at 2 μg/mL, in the presence of a class A, C, D serine β-lactamase inhibitor closely related to relebactam.
Description: as §3

Sequence of NDM-1 (C7C422 whole entry, looked up, species assumed): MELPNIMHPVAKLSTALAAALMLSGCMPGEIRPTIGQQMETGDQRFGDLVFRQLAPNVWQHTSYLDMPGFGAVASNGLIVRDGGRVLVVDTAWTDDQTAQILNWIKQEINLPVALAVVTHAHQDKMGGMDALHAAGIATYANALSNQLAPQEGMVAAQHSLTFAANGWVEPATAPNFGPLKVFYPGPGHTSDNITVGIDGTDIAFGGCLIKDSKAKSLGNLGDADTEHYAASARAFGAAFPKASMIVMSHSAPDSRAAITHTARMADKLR
Sequence of IMP-1 (P52699 whole entry, looked up, species assumed): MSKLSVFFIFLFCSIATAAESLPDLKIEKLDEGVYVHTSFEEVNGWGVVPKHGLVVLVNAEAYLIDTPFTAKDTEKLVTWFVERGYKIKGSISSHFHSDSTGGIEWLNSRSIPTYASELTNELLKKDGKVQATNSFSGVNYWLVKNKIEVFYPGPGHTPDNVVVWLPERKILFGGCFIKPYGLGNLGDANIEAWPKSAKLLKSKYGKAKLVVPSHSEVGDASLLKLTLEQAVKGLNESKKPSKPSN

For the compound `NS(=O)(=O)c1c(S(=O)(=O)C2CNC2)ccc(-c2csc(N3CCCC3)n2)c1-c1nnn[nH]1.O=C(O)C(F)(F)F` [Example 120, 3-((4-(2-(pyrrolidin-1-yl)thiazol-4-yl)-2-sulfamoyl-3-(1H-tetrazol-5-yl)phenyl)sulfonyl)azetidin-1-ium 2,2,2-trifluoroacetate], the IC50 amounted to 0.553 nM on IMP-1, 0.755 nM on NDM-1 and 1.42 nM at VIM-1. In data set [1], the “Escherichia coli expressing NDM-1 (CLB30016) MITC95” value is 3.125 µM. Besides, in data set [2], the “Klebsiella pneumoniae expressing VIM-1 (IHMA599644) MITC95” value was determined as 6.25 µM. Also, the “Serratia marcescens expressing IMP-1 (CL5741) MITC95” value in data set [3] stood at 3.125 µM. Also, the “P. aeruginosa expressing IMP-1, efflux+ (MB9798) MITC95” value in data set [4] came to 25 µM. Besides, the Efflux ratio in data set [4] came to 15.99. Also, the “P. aeruginosa expressing IMP-1, efflux− (MB9799) MITC95” value in data set [5] came to 1.563 µM.

As to `NS(=O)(=O)c1c(S(=O)(=O)C2CNC2)ccc(-c2ccc3nccnc3c2)c1-c1nnn[nH]1.O=C(O)C(F)(F)F` [Example 117, 3-((4-(quinoxalin-6-yl)-2-sulfamoyl-3-(1H-tetrazol-5-yl)phenyl)sulfonyl)azetidin-1-ium 2,2,2-trifluoroacetate], the IC50 stood at 1.41 nM on IMP-1, 0.93 nM at NDM-1 and 0.431 nM against VIM-1. Moreover, the “Escherichia coli expressing NDM-1 (CLB30016) MITC95” value in data set [1] stood at 6.25 µM. The “Klebsiella pneumoniae expressing VIM-1 (IHMA599644) MITC95” value in data set [2] was determined as 6.25 µM. Also, in data set [3], the “Serratia marcescens expressing IMP-1 (CL5741) MITC95” value is 3.125 µM. Also, the “P. aeruginosa expressing IMP-1, efflux+ (MB9798) MITC95” value in data set [4] worked out at 25 µM. Also, the Efflux ratio in data set [4] was found to be 15.99. Moreover, in data set [5], the “P. aeruginosa expressing IMP-1, efflux− (MB9799) MITC95” value was found to be 1.563 µM.

In the case of `Cc1ccc(-c2ccc(S(=O)(=O)CCN)c(S(N)(=O)=O)c2-c2nn[nH]n2)c2nc(N)[nH]c12` [Example 23, 3-(2-amino-7-methyl-1H-benzo[d]imidazol-4-yl)-6-((2-aminoethyl)sulfonyl)-2-(2H-tetrazol-5-yl)benzenesulfonamide], the IC50 came out at 0.352 nM at IMP-1, 0.123 nM on NDM-1 and 0.0986 nM against VIM-1. Besides, the “Escherichia coli expressing NDM-1 (CLB30016) MITC95” value in data set [1] was found to be 0.3906 µM. Also, the “Klebsiella pneumoniae expressing VIM-1 (IHMA599644) MITC95” value in data set [2] amounted to 0.7813 µM. Further, the “Serratia marcescens expressing IMP-1 (CL5741) MITC95” value in data set [3] amounted to 0.7813 µM. Moreover, in data set [4], the “P. aeruginosa expressing IMP-1, efflux+ (MB9798) MITC95” value amounted to 0.7813 µM. Moreover, the Efflux ratio in data set [4] was 2.00. Moreover, in data set [5], the “P. aeruginosa expressing IMP-1, efflux− (MB9799) MITC95” value turned out to be 0.3906 µM.

`C[C@@H](CN)S(=O)(=O)c1ccc(-c2cccc3sc(N)nc23)c(-c2nn[nH]n2)c1S(N)(=O)=O` [Example 286, 3-(2-aminobenzo[d]thiazol-4-yl)-6-((S)-1-aminopropan-2-ylsulfonyl)-2-(2H-tetrazol-5-yl)benzenesulfonamide]: the IC50 on IMP-1 worked out at 0.323 nM; on NDM-1, 0.0934 nM; against VIM-1, 0.265 nM. In addition, the “Escherichia coli MITC95” value in data set [1] (NDM-1 (CLB30016)) stood at 0.7813 µM. For the same compound, the “Klebsiella pneumoniae MITC95” value in data set [2] (VIM-1 (IHMA599644)) amounted to 1.563 µM. The “Serratia marcescens MITC95” value in data set [3] (IMP-1 (CL5741)) came to 0.7813 µM. Also, in data set [4], the “P. aeruginosa expressing IMP-1, efflux+ (MB9798) MITC95” value worked out at 1.563 µM. In data set [4], the Efflux ratio is given as 2.00. Also, the “P. aeruginosa expressing IMP-1, efflux− (MB9799) MITC95” value in data set [5] is 0.7813 µM.

Regarding `Nc1nc2cc(-c3ccc(S(=O)(=O)C4CNC4)c(S(N)(=O)=O)c3-c3nn[nH]n3)ccc2[nH]1` [Example 40, 3-(2-amino-1H-benzo[d]imidazol-5-yl)-6-(azetidin-3-ylsulfonyl)-2-(2H-tetrazol-5-yl)benzenesulfonamide], the figures for the IC50 at IMP-1, at NDM-1 and at VIM-1 were 1.99 nM, 0.409 nM and 0.348 nM, respectively. In addition, the “Escherichia coli expressing NDM-1 (CLB30016) MITC95” value in data set [1] was 0.4453 µM. Moreover, in data set [2], the “Klebsiella pneumoniae expressing VIM-1 (IHMA599644) MITC95” value was found to be 1.375 µM. In data set [3], the “Serratia marcescens expressing IMP-1 (CL5741) MITC95” value worked out at 0.5573 µM. Besides, the “P. aeruginosa expressing IMP-1, efflux+ (MB9798) MITC95” value in data set [4] was 3.125 µM. In data set [4], the Efflux ratio turned out to be 5.61. The “P. aeruginosa expressing IMP-1, efflux− (MB9799) MITC95” value in data set [5] stood at 0.5573 µM.

Turning to `Nc1nc2c(-c3ccc([S+]([O-])C4CNC4)c(S(N)(=O)=O)c3-c3nn[nH]n3)cccc2[nH]1` (stereo not drawn) [Example 13, 3-(2-amino-1H-benzo[d]imidazol-4-yl)-6-(azetidin-3-ylsulfinyl)-2-(2H-tetrazol-5-yl)benzenesulfonamide], the IC50 on IMP-1 turned out to be 50.8 nM; at NDM-1, 0.619 nM; against VIM-1 it was 6.61 nM. Also, the “Escherichia coli expressing NDM-1 (CLB30016) MITC95” value in data set [1] was determined as 0.3906 µM. Moreover, the “Klebsiella pneumoniae expressing VIM-1 (IHMA599644) MITC95” value in data set [2] was 1.563 µM. Also, the “Serratia marcescens expressing IMP-1 (CL5741) MITC95” value in data set [3] was found to be 3.125 µM. Further, the “P. aeruginosa expressing IMP-1, efflux+ (MB9798) MITC95” value in data set [4] came to 6.25 µM. The Efflux ratio in data set [4] turned out to be 4.00. Moreover, the “P. aeruginosa expressing IMP-1, efflux− (MB9799) MITC95” value in data set [5] was determined as 1.563 µM.
